Values joined by “and” are separate entries in the source; they are usually repeats but may differ in a detail not shown here. Identical values can stand only once. Inconclusive results and toxic doses are left out.
Test system: P388 leukemia ip, CD2F1 mice, survival T/C
Assay: NCI In Vivo Anticancer Drug Screen. Data for tumor model P388 Leukemia (intraperitoneal) in CD2F1 (CDF1) mice
Conditions: endpoint: median survival time, higher = longer survival
Method in brief: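 Mice carrying the transplanted tumor received test compound or vehicle. Survival was recorded in each group, and the value is the treated-group measurement divided by that of the vehicle-treated control group.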

[1] = dose: 50.0 mg/kg/injection, schedule: Q01DX005 (ip), vehicle: saline with Tween-80
[2] = dose: 100.0 mg/kg/injection, schedule: Q01DX005 (ip), vehicle: saline with Tween-80
[3] = dose: 200.0 mg/kg/injection, schedule: Q01DX005 (ip), vehicle: saline with Tween-80
[4] = dose: 60.0 mg/kg/injection, schedule: Q01DX005 (ip), vehicle: saline with Tween-80
[5] = dose: 120.0 mg/kg/injection, schedule: Q01DX005 (ip), vehicle: saline with Tween-80
[6] = dose: 50.0 mg/kg/injection, schedule: Q01DX009 (ip), vehicle: saline with Tween-80
[7] = dose: 100.0 mg/kg/injection, schedule: Q01DX009 (ip), vehicle: saline with Tween-80
[8] = dose: 200.0 mg/kg/injection, schedule: Q01DX009 (ip), vehicle: saline with Tween-80
[9] = dose: 50.0 mg/kg/injection, schedule: Q01DX009 (ip), vehicle: Klucel (hydroxypropylcellulose) (HPC)
[10] = dose: 100.0 mg/kg/injection, schedule: Q01DX009 (ip), vehicle: Klucel (hydroxypropylcellulose) (HPC)
[11] = dose: 50.0 mg/kg/injection, schedule: Q01DX005 (ip), vehicle: Klucel (hydroxypropylcellulose) (HPC)
[12] = dose: 100.0 mg/kg/injection, schedule: Q01DX005 (ip), vehicle: Klucel (hydroxypropylcellulose) (HPC)

O=C(CN1C(=O)c2cccc3c(Br)ccc(c23)C1=O)c1ccc(Cl)cc1
T/C [1]: 92 % of control | T/C [2]: 92 % of control | T/C [3]: 90 % of control

CSc1nc(N)c2cnn(C3CCCO3)c2n1 (configuration not stated)
T/C [2]: 102 % of control | T/C [3]: 94 % of control | T/C (dose: 400.0 mg/kg/injection, schedule: Q01DX005 (ip), vehicle: saline with Tween-80): 97 % of control

CCOC(=Nc1ccc2ccccc2c1)SC(c1ccccc1)(c1ccccc1)c1ccccc1
T/C [1]: 107 % of control | T/C [2]: 95 % of control | T/C [3]: 87 % of control

CC1(C)OC(=O)C(=Cc2ccc(C#N)cc2)C(=O)O1
T/C [4]: 108 % of control | T/C [5]: 102 % of control | T/C (dose: 240.0 mg/kg/injection, schedule: Q01DX005 (ip), vehicle: saline with Tween-80): 111 % of control

CCCCCCCCCCCCC(C(=O)O)C(C)C(=O)O (configuration not stated)
T/C (dose: 0.25 mg/kg/injection, schedule: Q01DX009 (ip), vehicle: saline with Tween-80): 96 % of control | T/C (dose: 0.5 mg/kg/injection, schedule: Q01DX009 (ip), vehicle: saline with Tween-80): 102 % of control | T/C (dose: 1.0 mg/kg/injection, schedule: Q01DX009 (ip), vehicle: saline with Tween-80): 104 % of control

C=C1C(=O)OC2C(OC=O)CCCC12 (configuration not stated)
T/C (dose: 60.0 mg/kg/injection, schedule: Q01DX005 (ip), vehicle: Klucel (hydroxypropylcellulose) (HPC)): 100 % of control | T/C (dose: 120.0 mg/kg/injection, schedule: Q01DX005 (ip), vehicle: Klucel (hydroxypropylcellulose) (HPC)): 103 % of control

CC(=O)OC(C(Br)CBr)C(OC(C)=O)C(Br)CBr (configuration not stated)
T/C (dose: 7.5 mg/kg/injection, schedule: Q01DX009 (ip), vehicle: saline): 104 % of control | T/C (dose: 15.0 mg/kg/injection, schedule: Q01DX009 (ip), vehicle: saline): 110 % of control | T/C (dose: 30.0 mg/kg/injection, schedule: Q01DX009 (ip), vehicle: saline): 106 % of control

CCOC(=O)NC(C)CC(C)NC(=O)OCC (configuration not stated)
T/C (dose: 50.0 mg/kg/injection, schedule: Q01DX001 (ip), vehicle: Klucel (hydroxypropylcellulose) (HPC)): 94 % of control | T/C (dose: 100.0 mg/kg/injection, schedule: Q01DX001 (ip), vehicle: Klucel (hydroxypropylcellulose) (HPC)): 92 % of control | T/C (dose: 200.0 mg/kg/injection, schedule: Q01DX001 (ip), vehicle: Klucel (hydroxypropylcellulose) (HPC)): 93 % of control

CCOC(=O)c1ccc(NC)cc1
T/C [6]: 105 % of control | T/C [7]: 102 % of control | T/C [8]: 118 % of control

COC1=C(Br)[C@H](O)[C@](O)(CC#N)C=C1Br
T/C (dose: 6.25 mg/kg/injection, schedule: Q01DX009 (ip), vehicle: saline): 121 % of control | T/C (dose: 8.75 mg/kg/injection, schedule: Q01DX009 (ip), vehicle: Klucel (hydroxypropylcellulose) (HPC)): 119 % of control | T/C (dose: 12.5 mg/kg/injection, schedule: Q01DX009 (ip), vehicle: saline): 123 % of control | T/C (dose: 25.0 mg/kg/injection, schedule: Q01DX009 (ip), vehicle: saline): 118 % of control

O=C1Nc2ccccc2/C1=N/N=C/c1ccccc1O
T/C [9]: 91 % of control | T/C [10]: 86 % of control

CN(C)c1cc(N(C)C)c(N(C)C)cc1N(C)C
T/C [1]: 109 % of control | T/C [2]: 102 % of control | T/C [3]: 100 % of control

CC(=O)NC(CSc1ccccc1)C(=O)O (configuration not stated)
T/C [1]: 100 % of control | T/C [2]: 100 % of control | T/C [3]: 99 % of control

CC(CCc1nc2ccccc2[nH]1)c1nc2ccccc2[nH]1 (configuration not stated)
T/C (dose: 25.0 mg/kg/injection, schedule: Q01DX005 (ip), vehicle: Klucel (hydroxypropylcellulose) (HPC)): 92 % of control | T/C [11]: 94 % of control | T/C [12]: 91 % of control | T/C (dose: 200.0 mg/kg/injection, schedule: Q01DX005 (ip), vehicle: Klucel (hydroxypropylcellulose) (HPC)): 91 % of control

Cc1cccc2c(C(=O)O)cc(-c3ccc(Cl)cc3)nc12
T/C (dose: 12.5 mg/kg/injection, schedule: Q01DX009 (ip), vehicle: saline with Tween-80): 104 % of control | T/C (dose: 25.0 mg/kg/injection, schedule: Q01DX009 (ip), vehicle: saline with Tween-80): 99 % of control | T/C [6]: 108 % of control

Nc1ccc(Br)cc1N
T/C (dose: 50.0 mg/kg/injection, schedule: Q01DX009 (ip), vehicle: distilled water + Tween-80 + alcohol): 111 % of control | T/C (dose: 50.0 mg/kg/injection, schedule: Q01DX009 (ip), vehicle: other): 100 % of control | T/C (dose: 50.0 mg/kg/injection, schedule: Q01DX009 (ip), vehicle: saline + Tween-80 + alcohol): 95 % of control | T/C (dose: 100.0 mg/kg/injection, schedule: Q01DX009 (ip), vehicle: distilled water + Tween-80 + alcohol): 120 % of control | T/C (dose: 100.0 mg/kg/injection, schedule: Q01DX009 (ip), vehicle: other): 98 % of control | T/C (dose: 100.0 mg/kg/injection, schedule: Q01DX009 (ip), vehicle: saline + Tween-80 + alcohol): 107 % of control | T/C (dose: 200.0 mg/kg/injection, schedule: Q01DX009 (ip), vehicle: distilled water + Tween-80 + alcohol): 150 % of control | T/C (dose: 200.0 mg/kg/injection, schedule: Q01DX009 (ip), vehicle: other): 106 % of control | T/C (dose: 200.0 mg/kg/injection, schedule: Q01DX009 (ip), vehicle: saline + Tween-80 + alcohol): 99 % of control

CCC1C2CC3C4N(C)c5ccccc5C45CC(C2C5O)N3C1O (configuration not stated)
T/C (dose: 0.31 mg/kg/injection, schedule: Q01DX009 (ip), vehicle: saline): 102 % of control and 106 % of control | T/C (dose: 0.62 mg/kg/injection, schedule: Q01DX009 (ip), vehicle: saline): 99 % of control and 106 % of control and 121 % of control | T/C (dose: 1.25 mg/kg/injection, schedule: Q01DX009 (ip), vehicle: saline): 102 % of control and 106 % of control and 95 % of control | T/C (dose: 2.5 mg/kg/injection, schedule: Q01DX009 (ip), vehicle: saline): 99 % of control and 105 % of control (2×) | T/C (dose: 5.0 mg/kg/injection, schedule: Q01DX009 (ip), vehicle: saline): 102 % of control | T/C (dose: 10.0 mg/kg/injection, schedule: Q01DX009 (ip), vehicle: saline): 105 % of control | T/C (dose: 15.0 mg/kg/injection, schedule: Q01DX005 (ip), vehicle: saline with Tween-80): 100 % of control | T/C (dose: 30.0 mg/kg/injection, schedule: Q01DX005 (ip), vehicle: saline with Tween-80): 94 % of control | T/C [4]: 93 % of control and 100 % of control | T/C [5]: 93 % of control

ClCCN(CCCl)c1ccc2c(c1)Cc1cc(Br)ccc1-2
T/C [9]: 107 % of control | T/C [10]: 110 % of control | T/C (dose: 200.0 mg/kg/injection, schedule: Q01DX009 (ip), vehicle: Klucel (hydroxypropylcellulose) (HPC)): 106 % of control | T/C (dose: 400.0 mg/kg/injection, schedule: Q01DX009 (ip), vehicle: Klucel (hydroxypropylcellulose) (HPC)): 110 % of control

Cn1c(=O)c2c(=O)n3ccccc3nc2n(C)c1=O
T/C [11]: 104 % of control | T/C [12]: 96 % of control

O=C(/C=C/c1ccc([N+](=O)[O-])cc1)NN=C(c1ccccc1)c1ccccc1
T/C [6]: 106 % of control and 96 % of control | T/C [7]: 99 % of control and 91 % of control | T/C [8]: 98 % of control | T/C (dose: 400.0 mg/kg/injection, schedule: Q01DX009 (ip), vehicle: saline with Tween-80): 99 % of control

CCC1(/C=N/NC(N)=S)NC(=O)NC1=O (configuration not stated)
T/C [1]: 93 % of control | T/C [2]: 89 % of control | T/C [3]: 94 % of control

O=C(c1ccccc1)c1nc(-c2ccccc2)oc1-c1ccccc1
T/C (dose: 100.0 mg/kg/injection, schedule: Q01DX001 (ip), vehicle: saline): 100 % of control | T/C (dose: 200.0 mg/kg/injection, schedule: Q01DX001 (ip), vehicle: saline): 108 % of control | T/C (dose: 400.0 mg/kg/injection, schedule: Q01DX001 (ip), vehicle: saline): 99 % of control

COc1cc(CC(O)c2cc(OC)c(OC)c(OC)c2)cc(OC)c1OC (configuration not stated)
T/C (dose: 31.25 mg/kg/injection, schedule: Q01DX009 (ip), vehicle: saline + Tween-80 + alcohol): 102 % of control | T/C (dose: 62.5 mg/kg/injection, schedule: Q01DX009 (ip), vehicle: saline + Tween-80 + alcohol): 102 % of control | T/C (dose: 125.0 mg/kg/injection, schedule: Q01DX009 (ip), vehicle: saline + Tween-80 + alcohol): 100 % of control | T/C (dose: 250.0 mg/kg/injection, schedule: Q01DX009 (ip), vehicle: saline + Tween-80 + alcohol): 91 % of control

O=C1CCCN1C1CC2c3ccccc3C1c1cccc[n+]12 (configuration not stated)
T/C (dose: 5.0 mg/kg/injection, schedule: Q01DX009 (ip), vehicle: saline sonified): 100 % of control | T/C (dose: 10.0 mg/kg/injection, schedule: Q01DX009 (ip), vehicle: saline sonified): 100 % of control | T/C (dose: 20.0 mg/kg/injection, schedule: Q01DX009 (ip), vehicle: saline sonified): 95 % of control
